Test results published in publication PMC8234143, “Synthesis and Antiviral Evaluation of Nucleoside Analogues Bearing One Pyrimidine Moiety and Two D-Ribofuranosyl Residues” (Molecules, 2021).
Entries after “also recorded” stand apart in the source; their conditions may differ. Where two headings read alike, the source gives them in different places.

Legend:
in vitro [1] = details: dog
in vitro [2] = details: African green monkey, CC50, Vero cells, MTT; concentration causing 50% cell death
[3] = tested on: A/Puerto Rico/8/34 (H1N1) influenza virus; assay: Antiviral (cytoprotection, MTT) assay against influenza virus in MDCK cells; assay type: cell-based; details: for SI: CC50/IC50 ratio, influenza H1N1 / MDCK; for IC50: 48 h
Coxsackie B3 virus [4] = assay: Antiviral (cytoprotection, MTT) assay against Coxsackie B3 virus in Vero cells; assay type: cell-based, coxsackievirus B3; details: for SI: CC50/IC50 ratio, Coxsackie B3 / Vero; for IC50: Enterovirus B, B3, Vero, 48 h, 50% inhibition of virus replication, Vero cells
Coxsackie B3 virus [5] = tested on: Coxsackie B3 virus; design: method as in PMID 32930935; details: cited from earlier work; for IC50: 50% inhibition of virus replication, Vero cells; for SI: CC50/IC50 ratio, Coxsackie B3 / Vero
[6] = tested on: A/Puerto Rico/8/34 (H1N1) influenza virus; design: method as in PMID 32930935; details: cited from earlier work; for IC50: 50% inhibition of virus replication, MDCK cells, earlier published compounds; for SI: CC50/IC50 ratio, influenza H1N1 / MDCK
[7] = Influenza A virus, H1N1, MDCK, 50% inhibition of virus replication, MDCK cells, read-out: IC50
[8] = 50% inhibition of virus replication, MDCK cells, read-out: IC50

SMILES	CC50 (in vitro [1]) [µM]	CC50 (in vitro [2]) [µM]	SI [3]	IC50 ([3]; Influenza A virus, H1N1, MDCK) [µM]	IC50 [3, 7] [µM]	antiviral activity against influenza virus A H1N1 (in words) ([3]; MDCK cells)	SI (Coxsackie B3 virus [4])	IC50 (Coxsackie B3 virus [4]) [µM]	IC50 (Coxsackie B3 virus [5]) [µM]	SI (Coxsackie B3 virus [5])	IC50 [6] [µM]	SI [6]	IC50 [3, 8] [µM]
Cc1cc(=O)n(Cc2cn(C3OC(CO)C(O)C3O)nn2)c(=O)n1Cc1cn(C2OC(CO)C(O)C2O)nn1 (stereo not drawn) [Compound 2g]	> 543	> 543	1	> 543	> 100	did not demonstrate antiviral activity	1	> 543					
Cc1cc(=O)n(CCCc2cn(C3OC(CO)C(O)C3O)nn2)c(=O)n1CCCc1cn(C2OC(CO)C(O)C2O)nn1 (stereo not drawn) [Compound 2h]	> 493	> 493	1	> 493	> 100		1	> 493					
Cc1cc(=O)[nH]c(=O)n1CCCCc1cn([C@@H]2O[C@H](CO)[C@@H](O)[C@H]2O)nn1 [Compound 2m]									106 ± 11	6 ^4,3	48 ± 6	6 ^4	
CC(=O)OCC1OC(n2cc(CCCCn3c(=O)c4ccccc4n(CCCCc4cn(C5OC(COC(C)=O)C(OC(C)=O)C5OC(C)=O)nn4)c3=O)nn2)C(OC(C)=O)C1OC(C)=O (stereo not drawn) [Compound 4f]	> 324		3		104 ± 15.1	inactive							
O=c1c2ccccc2n(Cc2cn(C3OC(CO)C(O)C3O)nn2)c(=O)n1Cc1cn(C2OC(CO)C(O)C2O)nn1 (stereo not drawn) [Compound 4g]	> 510	381 ± 26.1	3		> 100		2	> 170					180 ± 19.9
O=c1c2ccccc2n(CCCc2cn(C3OC(CO)C(O)C3O)nn2)c(=O)n1CCCc1cn(C2OC(CO)C(O)C2O)nn1 (stereo not drawn) [Compound 4h]	> 465	> 465	3		> 100	did not demonstrate antiviral activity	1	> 465					186 ± 21.6
O=c1c2ccccc2n(CCCCc2cn(C3OC(CO)C(O)C3O)nn2)c(=O)n1CCCCc1cn(C2OC(CO)C(O)C2O)nn1 (stereo not drawn) [Compound 4i]	> 446	> 446	2		297		1	> 446					297 ± 32.4
O=c1[nH]c(=O)n(Cc2cn([C@@H]3O[C@H](CO)[C@@H](O)[C@H]3O)nn2)c2ccccc12 [Compound 4j]									133 ± 15	1 ^4	42 ± 5	3	
O=c1c2nc3ccccc3nc2n(Cc2cn(C3OC(CO)C(O)C3O)nn2)c(=O)n1Cc1cn(C2OC(CO)C(O)C2O)nn1 (stereo not drawn) [Compound 5g]	> 468	> 468	3		> 100		1	> 468					187 ± 20.8
CC(=O)OCC1OC(n2cc(CCCc3c(C)[nH]c(=O)n(CCCc4cn(C5OC(COC(C)=O)C(OC(C)=O)C5OC(C)=O)nn4)c3=O)nn2)C(OC(C)=O)C1OC(C)=O (stereo not drawn) [Compound 11c]	> 349		12		29.2 ± 4.3								
CC(=O)OCC1OC(n2cc(CCCCc3c(C)[nH]c(=O)n(CCCCc4cn(C5OC(COC(C)=O)C(OC(C)=O)C5OC(C)=O)nn4)c3=O)nn2)C(OC(C)=O)C1OC(C)=O (stereo not drawn) [Compound 11d]	> 338		3		119 ± 8.7	did not demonstrate antiviral activity; also recorded: inactive							
CCC(CC)O[C@@H]1C=C(C(=O)O)C[C@H](N)[C@H]1NC(C)=O [Oseltamivir carboxylate, reference compound]	> 200		>667	0.3 ± 0.06									
Cc1cc(CCCOc2c(C)cc(-c3noc(C(F)(F)F)n3)cc2C)on1 [Pleconaril, reference compound]		> 1000					46	21.6					
CC(N)C12CC3CC(CC(C3)C1)C2 (stereo not drawn) [Rimantadine, reference compound]	340 ± 16		4	77 ± 8									
